Measurements reported in US10590143B2, “Herbicidally active (alkynyl-phenyl)-substituted cyclic dione compounds and derivatives thereof” (Syngenta Limited, priority 2013, dated 2020).

Columns and labels:
Test in all cases: Biological Example 2 glasshouse assay for herbicidal activity
Format in all cases: in vivo
[1] = test system: Glycine max (GLXMA, soybean); conditions: post-emergence, 360 h, 30 g/ha, 14 or 15 DAA, 0.2% v/v X-77, read-out: percentage phytotoxicity GLXMA
Procedure: (§1) Seeds of a variety of monocotyledonous and dicotyledonous test plants are sown in standard soil in pots. The plants are cultivated for one day (for pre-emergence) or for about 12 days (range=10-13 days) (for post-emergence) under controlled conditions in a glasshouse (warm climate species at 24/18° C., cool climate species at 20/16° C., both at day/night; 16 hours light; 65% humidity).
(§2) An “instant formulation”, known as the “IF50”, containing 50 g/litre (i.e. 5% w/v) of the “technical” (i.e. unformulated) active ingredient is prepared by dissolving the active ingredient in a mixture of organic solvents and emulsifier, details of which are provided in the Table below. This IF50 is then mixed with a small, variable amount of acetone to aid dissolution, before addition of a 0.2% v/v aqueous solution of the adjuvant X-77 (which is a mixture of alkyl aryl polyoxyethylene glycols and free fatty acids in isopropanol, CAS Registry number 11097-66-8), as the aqueous diluent, to form an aqueous spray solution which contains a predetermined concentration of the active ingredient (which varies depending on the application rate of the active ingredient to the plants) and 0.2% v/v of the adjuvant X-77. This aqueous spray solution is then sprayed onto the plants, after one day's cultivation (for pre-emergence) or after about 12 days' cultivation (for post-emergence).
(§3) The test plants are then grown on, in a glasshouse (greenhouse) under controlled conditions (at either 24/18° C. or 20/16° C. (day/night) as mentioned above; 16 hours light; 65% humidity) and are watered twice daily. Either 14 or 15 days after application of the herbicide (14 or 15 DAA) (for post-emergence), or 20 days after application of the herbicide (20 DAA) (for pre-emergence), the test plants are evaluated visually, and an assessed percentage phytotoxicity score is given for each herbicidal application on each plant species (where 100%=total damage to plant; 0%=no damage to plant).
(§4) Some of the typical test plants are as follows: • Cool climate crop plants: Triticum aestivum (TRZAW, winter wheat), Brassica napus (BRSNN, rape, also called oilseed rape or rapeseed), Beta vulgaris (BEAVA, sugarbeet). • Warm climate crop plants: Glycine max (GLXMA, soybean). • Cool climate (“cool season”) grassy monocotyledonous weeds: Alopecurus myosuroides (ALOMY), Avena fatua (AVEFA), Lolium perenne (LOLPE), Poa annua (POAAN), Bromus tectorum (BROTE). • Warm climate (“warm season”) grassy monocotyledonous weeds: Setaria faberi (SETFA), SORVU (Sorghum bicolor (L.) Moench ssp. Bicolor, or Sorghum vulgare Pers.), Digitaria sanguinalis (DIGSA), Echinochloa crus-galli (ECHCG), Brachiaria plantaginea (BRAPL); Zea mays (ZEAMX, corn, maize, e.g. volunteer corn).

[2] = test system: Echinochloa crus-galli (ECHCG); conditions: Echinochloa crus-galli, post-emergence, 360 h, 30 g/ha, 14 or 15 DAA, 0.2% v/v X-77, read-out: percentage phytotoxicity ECHCG
Procedure: as §1, §2, §3, §4

Lolium perenne (LOLPE) = conditions: post-emergence, 30 g/ha, 14 or 15 DAA; for pest or weed control at 30 g/ha: Lolium perenne, 360 h, 0.2% v/v X-77, read-out: percentage phytotoxicity LOLPE
Procedure: as §1, §2, §3, §4

[3] = test system: Brassica napus (BRSNN, rape); conditions: Brassica napus, 360 h; post-emergence, 30 g/ha, 14 or 15 DAA, 0.2% v/v X-77; read-out: percentage phytotoxicity BRSNN
Procedure: as §1, §2, §3, §4

[4] = test system: Digitaria sanguinalis (DIGSA); conditions: post-emergence, 360 h, 30 g/ha, 14 or 15 DAA, 0.2% v/v X-77, read-out: percentage phytotoxicity DIGSA
Procedure: as §1, §2, §3, §4

Avena fatua (AVEFA) = conditions: post-emergence, 360 h, 30 g/ha, 14 or 15 DAA, 0.2% v/v X-77, read-out: percentage phytotoxicity AVEFA
Procedure: as §1, §2, §3, §4

[5] = test system: Alopecurus myosuroides (ALOMY); conditions: post-emergence, 360 h, 30 g/ha, 14 or 15 DAA, 0.2% v/v X-77, read-out: percentage phytotoxicity ALOMY
Procedure: as §1, §2, §3, §4

Setaria faberi (SETFA) = conditions: post-emergence, 360 h, 30 g/ha, 14 or 15 DAA, 0.2% v/v X-77, read-out: percentage phytotoxicity SETFA
Procedure: as §1, §2, §3, §4

[6] = test system: Triticum aestivum (TRZAW, winter wheat); conditions: post-emergence, 360 h, 30 g/ha, 14 or 15 DAA, 0.2% v/v X-77, read-out: percentage phytotoxicity TRZAW
Procedure: as §1, §2, §3, §4

[7] = test system: Brachiaria plantaginea (BRAPL); conditions: Urochloa plantaginea, post-emergence, 360 h, 30 g/ha, 14 or 15 DAA, 0.2% v/v X-77, read-out: percentage phytotoxicity BRAPL
Procedure: as §1, §2, §3, §4

[8] = test system: SORVU (Sorghum bicolor (L.) Moench ssp. Bicolor, or Sorghum vulgare Pers.); conditions: post-emergence, 360 h, 30 g/ha, 14 or 15 DAA, 0.2% v/v X-77, read-out: percentage phytotoxicity SORVU
Procedure: as §1, §2, §3, §4

[9] = test system: Zea mays (ZEAMX, corn, maize, e.g. volunteer corn); conditions: Zea mays, post-emergence, 360 h, 30 g/ha, 14 or 15 DAA, 0.2% v/v X-77, read-out: percentage phytotoxicity ZEAMX
Procedure: as §1, §2, §3, §4

[10] = test system: Beta vulgaris (BEAVA, sugarbeet); conditions: post-emergence, 360 h, 30 g/ha, 14 or 15 DAA, 0.2% v/v X-77, read-out: percentage phytotoxicity BEAVA
Procedure: as §1, §2, §3, §4

Row | SMILES | plant injury at 30 g/ha [1] [%] | pest or weed control at 30 g/ha [2] [%] | pest or weed control at 30 g/ha (Lolium perenne (LOLPE)) [%] | plant injury at 30 g/ha [3] [%] | pest or weed control at 30 g/ha [4] [%] | pest or weed control at 30 g/ha (Avena fatua (AVEFA)) [%] | pest or weed control at 30 g/ha [5] [%] | pest or weed control at 30 g/ha (Setaria faberi (SETFA)) [%] | plant injury at 30 g/ha [6] [%] | pest or weed control at 30 g/ha [7] [%] | percentage phytotoxicity LOLPE (Lolium perenne (LOLPE); 0.2% v/v X-77) [%] | pest or weed control at 30 g/ha [8] [%] | pest or weed control at 30 g/ha [9] [%] | plant injury at 30 g/ha [10] [%]
1 | Cc1cc(C)c(C2C(=O)C3CCC(C3)C2=O)c(C)c1 (stereo not drawn) [Compound X9, reference compound] | 0 | 20 | 0 | 0 | 30 | 0 | 0 | 70 | 0 | 70 | – | – | – | –
2 | CCc1cc(C)cc(CC)c1C1C(=O)C2CCC(C2)C1=O (stereo not drawn) [Compound X10, reference compound] | 0 | – | 70 | 0 | 100 | – | 80 | 100 | – | 80 | 70 | 60 | 80 | 0
